The structures appear in SMILES notation. pIC50: −log10 of the molar value.

For orientation: pIC50 means −log10 of the IC50, conventionally taken in molar units.

This experiment addresses NK1 receptors (Homo sapiens, UniProt P25103). Briefly: Binding of [4,5-3H-Leu10] substance P to human recombinant NK1 receptors expressed in CHO cell membranes. The arrangement: host or cells: CHO cells. Conditions: pIC50 = -log IC50, concentration inhibiting by 50% the specific binding of [4,5-3H] substance P; tested as the free base/salt given in c1. As for the experimental part: The following test was designed to assess the affinity of test substances for human recombinant NK1 receptors expressed in Chinese Hamster Ovarian (CHO) cells.
CHO cells expressing the human recombinant NK1 receptor are used. The cells were obtained from Euroscreen (Brussels, Belgium).
Cells expressing the human NK1 receptor are routinely cultured in 175 cm2 flasks containing 75 ml of medium F12 (Ham) enriched with 2 mmol/l L-glutamine, 100 IU/ml penicilline, 100 μg/ml streptomycine, 1% sodium pyruvate, 2.5 μg/ml fungizone amphotericin B, 400 μg/ml geneticin and supplemented with 10% foetal calf serum. […] When subcultured, the cells are seeded at a concentration of 50,000 cells/cm2.
Confluent cells are gently scraped and resuspended in 25 ml of phosphate buffered saline without calcium and magnesium. The cellular suspension is centrifuged at 1500×g for 3 min (4° C.). The cell pellet is homogenized in a 15 mmol/l Tris-HCl (pH 7.5) buffer, 2 mmol/l MgCl2, 0.3 mmol/l EDTA, 1 mmol/l EGTA. The crude membrane fraction is collected by two consecutive centrifugation steps at 40,000×g for 25 min (4° C.). The final pellet is resuspended in 20 mmol/l Tris-HCl (pH 7.4), 250 mmol/l sucrose buffer at a protein concentration ranging from 2 to 6 mg/ml and stored in liquid nitrogen. • 1.2.2. Test Design
The inhibition constant (Ki) is determined using increasing concentrations of the test substance. The concentration range usually encompasses 6 log units with variable steps (0.3 to 1 log). Assays are performed in mono- or duplicate.
Membranes are incubated at 25° C. for 60 min in 0.5 ml of a 50 mmol/l Tris-HCl buffer (pH 7.4) containing 2 mmol/l MgCl2, 100 μg/ml bacitracine, 0.1 to 0.4×10^−9 mol/l of [4,5^3H-Leu^10] substance P (specific activity>100 Ci/mmol) and increasing concentrations of the test substance. […] Membrane-bound and free radioligands are separated by rapid filtration through glass fiber filters (equivalent to Whatman GF/C or GF/B; VEL, Belgium) presoaked in 0.1% polyethyleneimine to reduce non specific binding. Samples and filters are rinsed by at least 6 ml of 50 mmol/l Tris-HCl (pH 7.4) buffer.
Initial values for the different variables may be provided by the experimenter.

Sequence of NK1 receptors (P25103 whole entry): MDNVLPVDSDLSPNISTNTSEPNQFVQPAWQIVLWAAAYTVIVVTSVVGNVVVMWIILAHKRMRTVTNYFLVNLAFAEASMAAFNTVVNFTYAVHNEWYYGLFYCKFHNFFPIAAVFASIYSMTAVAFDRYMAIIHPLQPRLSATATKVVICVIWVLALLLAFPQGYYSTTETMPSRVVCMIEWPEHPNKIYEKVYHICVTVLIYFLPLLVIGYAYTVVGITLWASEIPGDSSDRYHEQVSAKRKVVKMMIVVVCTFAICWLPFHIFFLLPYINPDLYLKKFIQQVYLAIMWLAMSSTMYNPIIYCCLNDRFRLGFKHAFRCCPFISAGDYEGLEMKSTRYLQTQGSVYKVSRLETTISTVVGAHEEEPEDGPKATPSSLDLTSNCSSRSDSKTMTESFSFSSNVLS

`CCOC(=O)CCCN1CCN(C(COCc2cc(C(F)(F)F)cc(C(F)(F)F)c2)c2ccccc2)CC1` (racemic) [Compound 138, 4-{4-[2-(3,5-Bis-trifluoromethyl-benzyloxy)-1-phenyl-ethyl]-piperazin-1-yl}-butyric acid ethyl ester]: the pIC50 is 8.00.
On to `COC(=O)CCCCN1CCN(C(COCc2cc(C(F)(F)F)cc(C(F)(F)F)c2)c2ccccc2)CC1` (racemic) [Compound 139], for which the pIC50 is 8.20.
Regarding `CCOC(=O)CCCCCN1CCN(C(COCc2cc(C(F)(F)F)cc(C(F)(F)F)c2)c2ccccc2)CC1` (racemic) [Compound 141], the negative logarithm of the IC50 (pIC50) was 8.10.
Take `CC(C)OC(=O)CCCCCN1CCN(C(COCc2cc(C(F)(F)F)cc(C(F)(F)F)c2)c2ccccc2)CC1` (racemic) [Compound 142]: the negative logarithm of the IC50 (pIC50) is 8.10.
As to `NC(=O)COCCN1CCN(C(COCc2cc(C(F)(F)F)cc(C(F)(F)F)c2)c2ccccc2)CC1` (racemic) [Compound 147], the pIC50 was 8.00.
Turning to `NC(=O)CCCCCN1CCN(C(COCc2cc(C(F)(F)F)cc(C(F)(F)F)c2)c2ccccc2)CC1` (racemic) [Compound 150], the pIC50 was 8.30.
Take `N#CCCCN1CCN(C(COCc2cc(C(F)(F)F)cc(C(F)(F)F)c2)c2ccccc2)CC1` (racemic) [Compound 151]: the negative-log IC50 (pIC50) is 7.70.
Consider `N#CCCCCN1CCN(C(COCc2cc(C(F)(F)F)cc(C(F)(F)F)c2)c2ccccc2)CC1` (racemic) [Compound 152], for which the negative-log IC50 (pIC50) was 7.90.
With `N#CCOCCN1CCN(C(COCc2cc(C(F)(F)F)cc(C(F)(F)F)c2)c2ccccc2)CC1` (racemic) [Compound 155] the figure was 7.80.
Take `N#CCCCCCN1CCN(C(COCc2cc(C(F)(F)F)cc(C(F)(F)F)c2)c2ccccc2)CC1` (racemic) [Compound 156]: the pIC50 is 8.10.
Turning to `OCCN1CCN(C(COCc2cc(C(F)(F)F)cc(C(F)(F)F)c2)c2ccccc2)CC1` (racemic) [Compound 157, 2-{4-[2-(3,5-Bis-trifluoromethyl-benzyloxy)-1-phenyl-ethyl]-piperazin-1-yl}-ethanol], the pIC50 was 8.20.
With `O=S1(=O)CCN(CCN2CCN(C(COCc3cc(C(F)(F)F)cc(C(F)(F)F)c3)c3ccccc3)CC2)CC1` (racemic) [Compound 161], the negative logarithm of the IC50 (pIC50) was 8.10.
For `FC(F)(F)c1cc(COCC(c2ccccc2)N2CCN(CCN3CCOCC3)CC2)cc(C(F)(F)F)c1` (racemic) [Compound 162], the negative logarithm of the IC50 (pIC50) was 8.10.
With `FC(F)(F)c1cc(COCC(c2ccccc2)N2CCN(Cc3ccccn3)CC2)cc(C(F)(F)F)c1` (racemic) [Compound 170] the figure was 7.30; with `O=C1c2ccccc2C(=O)N1CCN1CCN(C(COCc2cc(C(F)(F)F)cc(C(F)(F)F)c2)c2ccccc2)CC1` (racemic) [Compound 171], 7.10.
The figure for `COc1cc(COCCN2CCN(C(COCc3cc(C(F)(F)F)cc(C(F)(F)F)c3)c3ccccc3)CC2)cc(OC)c1OC` (racemic) [Compound 175] is 8.30; for `NC(=O)CN1CCN(C(COCc2cc(C(F)(F)F)cc(C(F)(F)F)c2)c2cccc3ccccc23)CC1` (racemic) [Compound 191] it is 7.20; for `COC(=O)CN1CCN(C(COCc2cc(Br)cc(I)c2)c2ccccc2)CC1` (racemic) [Compound 208] it is 7.20.
With `CC(C)(C)NC(=O)CN1CCN(C(COCc2cc(C(F)(F)F)cc(C(F)(F)F)c2)c2ccccc2)CC1` (racemic) [Compound 293], the pIC50 was 7.20.
For `CN(C(=O)CN1CCN(C(COCc2cc(C(F)(F)F)cc(C(F)(F)F)c2)c2ccccc2)CC1)C(C)(C)C` (racemic) [Compound 294], the pIC50 was 7.90.
Consider `CC(C)OC(=O)CN1CCN([C@H](COCc2cc(C(F)(F)F)cc(C(F)(F)F)c2)c2ccccc2)CC1` [Compound 136], for which the pIC50 is 7.10.
Take `NC(=O)CN1CCN(C(COCc2cc(C(F)(F)F)cc(C(F)(F)F)c2)c2ccccc2)CC1` (stereo not drawn) [Compound 143]: the negative logarithm of the IC50 (pIC50) was 7.40.
Regarding `NC(=O)CN1CCN([C@H](COCc2cc(C(F)(F)F)cc(C(F)(F)F)c2)c2ccccc2)CC1` [Compound 144, (S)-2-{4-[2-(3,5-Bis-trifluoromethyl-benzyloxy)-1-phenyl-ethyl]-piperazin-1-yl}-acetamide], the negative-log IC50 (pIC50) was 7.40.
For `NC(=O)CN1CCN([C@@H](COCc2cc(C(F)(F)F)cc(C(F)(F)F)c2)c2ccccc2)CC1` [Compound 145], the pIC50 was 7.50.
Consider `NC(=O)CCN1CCN(C(COCc2cc(C(F)(F)F)cc(C(F)(F)F)c2)c2ccccc2)CC1` (stereo not drawn) [Compound 146], for which the negative-log IC50 (pIC50) is 7.80.
With `NC(=O)COCCN1CCN([C@H](COCc2cc(C(F)(F)F)cc(C(F)(F)F)c2)c2ccccc2)CC1` [Compound 148], the pIC50 is 7.40.
For `NC(=O)COCCN1CCN([C@@H](COCc2cc(C(F)(F)F)cc(C(F)(F)F)c2)c2ccccc2)CC1` [Compound 149], the negative-log IC50 (pIC50) was 7.20.
Regarding `OCCOCCN1CCN([C@H](COCc2cc(C(F)(F)F)cc(C(F)(F)F)c2)c2ccccc2)CC1` [Compound 158], the negative-log IC50 (pIC50) is 8.10.
With `CCOP(=O)(CCN1CCN([C@H](COCc2cc(C(F)(F)F)cc(C(F)(F)F)c2)c2ccccc2)CC1)OCC` [Compound 164], the pIC50 is 7.40.
Consider `COc1cc(CN2CCN([C@H](COCc3cc(C(F)(F)F)cc(C(F)(F)F)c3)c3ccccc3)CC2)cc(OC)c1OC` [Compound 173], for which the pIC50 was 7.60.
For the compound `COc1cc(CN2CCN([C@@H](COCc3cc(C(F)(F)F)cc(C(F)(F)F)c3)c3ccccc3)CC2)cc(OC)c1OC` [Compound 174], the negative-log IC50 (pIC50) is 7.40.
Consider `COc1cc(COCCN2CCN(C(COCc3cc(C(F)(F)F)cc(C(F)(F)F)c3)c3ccccc3)CC2)cc(OC)c1OC` (stereo not drawn) [Compound 176], for which the negative-log IC50 (pIC50) was 7.60.
Take `FC(F)(F)c1cc(COCC(c2ccccc2)N2CCN(c3ccnc4ccccc34)CC2)cc(C(F)(F)F)c1` (stereo not drawn) [Compound 227]: the negative logarithm of the IC50 (pIC50) is 7.40.
The figure for `NC(=O)CCCN1CCN(C(COCc2cc(C(F)(F)F)cc(C(F)(F)F)c2)c2ccccc2)CC1` (stereo not drawn) [Compound 288, 4-{4-[2-(3,5-Bis-trifluoromethyl-benzyloxy)-1-phenyl-ethyl]-piperazin-1-yl}-butyramide] is 8.30; for `CC(=O)NC(CCN1CCN(C(COCc2cc(C(F)(F)F)cc(C(F)(F)F)c2)c2ccccc2)CC1)c1ccccc1` (stereo not drawn) [Compound 308, N-(3-{4-[2-(3,5-Bis-trifluoromethyl-benzyloxy)-1-phenyl-ethyl]-piperazin-1-yl}-1-phenyl-propyl)-acetamide] it is 7.90; for `O=C(CCCCCN1CCN(C(COCc2cc(C(F)(F)F)cc(C(F)(F)F)c2)c2ccccc2)CC1)NO` (stereo not drawn) [Compound 315, 6-{4-[2-(3,5-Bis-trifluoromethyl-benzyloxy)-1-phenyl-ethyl]-piperazin-1-yl}-hexanoic acid hydroxyamide] it is 8.30.

The values are drawn from patent US6916797B2, “α-arylethylpiperazine derivatives as neurokinin antagonists” (UCB, S.A., priority 2000, dated 2005).
